Reference: ChEMBL document CHEMBL5143734, “Seco-Lupane Triterpene Derivatives Induce Ferroptosis through GPX4/ACSL4 Axis and Target Cyclin D1 to Block the Cell Cycle” (J Med Chem, 2022)

Experiments:
Assay type in all cases: functional, cell-based
MCF7 = assay: Cytotoxicity against human MCF7 cells assessed as reduction in cell viability by CCK-8 assay
A549 = assay: Cytotoxicity against human A549 cells assessed as reduction in cell viability by CCK-8 assay
HepG2 = assay: Cytotoxicity against human HepG2 cells assessed as reduction in cell viability by CCK-8 assay
PC-3M = assay: Cytotoxicity against human PC-3M cells assessed as reduction in cell viability by CCK-8 assay
PANC-1 = assay: Cytotoxicity against human PANC-1 cells assessed as reduction in cell viability by CCK-8 assay

| SMILES | IC50 (MCF7) [µM] | IC50 (A549) [µM] | IC50 (HepG2) [µM] | IC50 (PC-3M) [µM] | IC50 (PANC-1) [µM] |
| --- | --- | --- | --- | --- | --- |
| C=C(C)[C@@H]1CC[C@]2(C(=O)OCCCn3cnc(C)c3)CC[C@]3(C)[C@H](C[C@@H](O)[C@@H]4[C@@]5(C)C(CC(=O)OC)OC(C)(C)C5CC[C@]43C)[C@@H]12 (stereo not given in full) | 71.9 | 31.5 | 21.6 | 30.6 | 49.2 |
| C=C(C)[C@@H]1CC[C@]2(C(=O)OCCCCCCn3ccnc3CC)CC[C@]3(C)[C@H](C[C@@H](O)[C@@H]4[C@@]5(C)C(CC(=O)OC)OC(C)(C)C5CC[C@]43C)[C@@H]12 (stereo not given in full) | 34.5 | 24.1 | 16.9 | 19.6 | 18.5 |
| C=C(C)[C@@H]1CC[C@]2(C(=O)OCCCCCCCCCCn3ccnc3CC)CC[C@]3(C)[C@H](C[C@H]4OC(=O)C[C@@H](O)[C@]5(C)[C@@H]4[C@@]3(C)CC[C@H]5C(=C)C)[C@@H]12 | 30.9 | 15.1 | 4.36 | 13.9 | 9.93 |
| C=C(C)[C@@H]1CC[C@]2(C(=O)OCCCCCn3cnc(C)c3)CC[C@]3(C)[C@H](C[C@H]4OC(=O)C[C@@H](O)[C@]5(C)[C@@H]4[C@@]3(C)CC[C@H]5C(=C)C)[C@@H]12 | 95.8 | 12.9 | 10.6 | 14.8 | 26.5 |
| C=C(C)[C@@H]1CC[C@]2(C(=O)OCCCCCCCCCCn3cncn3)CC[C@]3(C)[C@H](C[C@H]4OC(=O)C[C@@H](O)[C@]5(C)[C@@H]4[C@@]3(C)CC[C@H]5C(=C)C)[C@@H]12 | 46.2 | 29.4 | 14.6 | 19.9 | 36.4 |
| C=C(C)[C@@H]1CC[C@]2(C(=O)OCCCBr)CC[C@]3(C)[C@H](C[C@H]4OC(=O)C[C@@H](O)[C@]5(C)[C@@H]4[C@@]3(C)CC[C@H]5C(=C)C)[C@@H]12 | > 200 | 136 | > 200 | 109 | > 200 |
| C=C(C)[C@@H]1CC[C@]2(C(=O)OCCCCCn3ccnc3)CC[C@]3(C)[C@H](C[C@@H](O)[C@@H]4[C@@]5(C)C(CC(=O)OC)OC(C)(C)C5CC[C@]43C)[C@@H]12 (stereo not given in full) | 65.1 | 34.9 | 24.6 | 30.6 | 50 |
| C=C(C)[C@@H]1CC[C@]2(C(=O)OCCCCCCCCCCn3cncn3)CC[C@]3(C)[C@H](C[C@@H](O)[C@@H]4[C@@]5(C)C(CC(=O)OC)OC(C)(C)C5CC[C@]43C)[C@@H]12 (stereo not given in full) | 71 | 77.8 | 36.4 | 23.5 | 104 |
| C=C(C)[C@@H]1CC[C@]2(C(=O)OCCCCCCCCCCBr)CC[C@]3(C)[C@H](C[C@@H](O)[C@@H]4[C@@]5(C)C(CC(=O)OC)OC(C)(C)C5CC[C@]43C)[C@@H]12 (stereo not given in full) | 88.5 | 34.6 | 15.1 | 16.6 | 15.1 |
| C=C(C)[C@@H]1CC[C@]2(C(=O)OCCCCn3ccnc3)CC[C@]3(C)[C@H](C[C@H]4OC(=O)C[C@@H](O)[C@]5(C)[C@@H]4[C@@]3(C)CC[C@H]5C(=C)C)[C@@H]12 | 84.4 | 32.7 | 20.9 | 28.2 | 50.1 |
| C=C(C)[C@@H]1CC[C@]2(C(=O)OCCCCCCn3cnc(C)c3)CC[C@]3(C)[C@H](C[C@@H](O)[C@@H]4[C@@]5(C)C(CC(=O)OC)OC(C)(C)C5CC[C@]43C)[C@@H]12 (stereo not given in full) | 33.4 | 25 | 12.8 | 18.4 | 17.7 |
| C=C(C)[C@@H]1CC[C@]2(C(=O)OCCCn3ccnc3CC)CC[C@]3(C)[C@H](C[C@H]4OC(=O)C[C@@H](O)[C@]5(C)[C@@H]4[C@@]3(C)CC[C@H]5C(=C)C)[C@@H]12 | 47 | 21.2 | 16.4 | 12.3 | 26.9 |
